According to US20120277238A1, “PHARMACEUTICAL COMPOSITION CONTAINING FUSED HETERO-RING DERIVATIVE” (Shionogi & Co., Ltd, priority 2009, published 2012):

Target: T1, human HRH4 (Homo sapiens, UniProt Q9H3N8)
T1 construct: purchased PerkinElmer
T1 sequence (Q9H3N8 whole entry): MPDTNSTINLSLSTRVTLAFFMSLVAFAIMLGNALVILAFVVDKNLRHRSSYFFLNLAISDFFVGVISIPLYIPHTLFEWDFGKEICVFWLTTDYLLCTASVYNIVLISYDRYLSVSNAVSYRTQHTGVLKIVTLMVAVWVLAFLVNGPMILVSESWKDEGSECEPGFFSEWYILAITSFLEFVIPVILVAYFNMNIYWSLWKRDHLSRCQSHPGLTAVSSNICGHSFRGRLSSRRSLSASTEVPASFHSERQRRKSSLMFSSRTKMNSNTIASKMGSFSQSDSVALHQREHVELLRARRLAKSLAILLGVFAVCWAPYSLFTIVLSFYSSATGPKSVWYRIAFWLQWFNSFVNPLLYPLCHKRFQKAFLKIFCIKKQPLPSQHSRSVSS
Assay: Histamine H4 receptor binding test ([3H]-Histamine radioligand binding)
Settings: membrane fraction of CHO-K1 expressing human HRH4; [3H]-Histamine 15 nM; Ki by Cheng-Prusoff
Method: Membrane fraction of CHO-K1 stably expressing human HRH4 was purchased from PerkinElmer. Radioligand binding assay was performed in 96 well polypropylene assay plates in a total assay volume of 150 μL. Membrane suspension (15 μg of protein) was mixed with [3H]-Histamine (PerkinElmer) at 15 nM and compounds at various concentration in 50 mM Tris-HCl pH7.4, 5 mM EDTA buffer. Assays were incubated for 60 min at room temperature, then the reactions were terminated by rapid filtration over 96-well GF/B filter plates (PerkinElmer) presoaked in 0.5% polyethyleneimine. Unbound radioactivity was eliminated by six times of wash with 350 μL of ice-cold 50 mM Tris pH7.4 buffer. When the filter plates were dried, Microscint-MS liquid scintillation fluid (PerkinElmer) was added to each well and retained radioactivity plates were counted in a Topcount liquid scintillation counter (PerkinElmer). Specific binding was calculated by subtracting non-specific binding determined in the presence of 100 μM unlabeled histamine from total count.
The resulting data were analyzed for IC50 using the non-linear regression on XLfit.
Affinity values (Ki) were then determined by Cheng-Prusoff equation.
Compound CN1CCN(C(=O)c2cc3c([nH]2)CCC(Cl)C3)CC1 (stereo not drawn) [Compound I-020] has a Ki of 22 nM. Compound CNC1CCN(C(=O)c2cc3c([nH]2)CCCC3)C1 (stereo not drawn) [Compound I-003] has a Ki of 680 nM. Compound O=C(c1cc2c([nH]1)CCCC2)N1C[C@H]2CCCN[C@H]2C1 [Compound I-062] has a Ki of 260 nM. With CN1CCN(C(=O)c2cc3c([nH]2)CCC(Cl)(Cl)C3)CC1 [Compound I-047] the Ki was 14 nM. O=C(c1cc2c([nH]1)CCC(F)(F)C2)N1CCNCC1 [Compound I-056] gave a Ki of 130 nM. Work on CN1CCN(C(=O)c2cc3c([nH]2)CC(O)C(Cl)(Cl)C3)CC1 (stereo not drawn) [Compound I-076] yielded a Ki of 25 nM. Work on CN1CCN(C(=O)c2cc3c([nH]2)CCC(F)C3O)CC1 (stereo not drawn) [Compound I-053] yielded a Ki of 140 nM. Compound C#CC1=Cc2cc(C(=O)N3CCN(C)CC3)[nH]c2CC1 [Compound I-033] has a Ki of 320 nM. CN1CCN(C(=O)c2cc3c([nH]2)CCC(F)(F)C3O)CC1 (stereo not drawn) [Compound I-054] gave a Ki of 230 nM. With CN1CCN(C(=O)c2cc3c([nH]2)C(C)(O)CC3)CC1 (stereo not drawn) [Compound I-057] the Ki was 440 nM. Compound O=C(c1cc2c([nH]1)CCC(Cl)(Cl)C2)N1CCNCC1 [Compound I-055] has a Ki of 23 nM. Compound CN1CCN(C(=O)c2cc3c([nH]2)CCCC3O)CC1 (stereo not drawn) [Compound I-051] has a Ki of 250 nM. For CCOC1c2cc(C(=O)N3C[C@H]4CCCN[C@H]4C3)[nH]c2CCC1(F)F (stereo partly drawn) [Compound I-070], the Ki was 270 nM. CN1CCN(C(=O)c2cc3c([nH]2)CC(O)CC3)CC1 (stereo not drawn) [Compound I-075] gave a Ki of 20 nM. COC1c2cc(C(=O)N3CCNCC3)[nH]c2CCC1(Cl)Cl (stereo not drawn) [Compound I-067] showed a Ki of 480 nM. In the case of CN1CCN(C(=O)c2cc3c([nH]2)CCCC3)CC1 [Compound I-048], the Ki is reported as 110 nM. Compound O=C(c1cc2c([nH]1)CCCC2)N1CC2CCCNC2C1 (stereo not drawn) [Compound I-006] has a Ki of 230 nM. In the case of CN1CCN(C(=O)c2cc3c([nH]2)CCC(=O)C3)CC1 [Compound I-016], the Ki is reported as 370 nM. For CC1CCCc2cc(C(=O)N3CCN(C)CC3)[nH]c21 (stereo not drawn) [Compound I-026], the Ki was 100 nM. CN1CCN(C(=O)c2nc3c([nH]2)CCCC3)CC1 [Compound I-049] showed a Ki of 150 nM. CC(=O)n1c(C(=O)N2CCN(C)CC2)cc2c1CCCC2 [Compound I-059] gave a Ki of 270 nM. CC1CCCc2[nH]c(C(=O)N3CCN(C)CC3)cc21 (stereo not drawn) [Compound I-009] showed a Ki of 150 nM. Work on CC1CCc2[nH]c(C(=O)N3CCN(C)CC3)cc2C1 (stereo not drawn) [Compound I-015] yielded a Ki of 86 nM. For O=C(c1nc2c([nH]1)CCCC2)N1CCNCC1 [Compound I-008], the Ki was 420 nM. For CN1CCN(C(=O)c2cc3c([nH]2)CCCCC3)CC1 [Compound I-013], the Ki was 300 nM. COC1c2cc(C(=O)N3CCN(C)CC3)[nH]c2CCC1(Cl)Cl (stereo not drawn) [Compound I-069] showed a Ki of 220 nM. Compound CN1CCN(C(=O)c2cc3c([nH]2)CCC(c2ccccc2)=C3)CC1 [Compound I-027] has a Ki of 760 nM. With O=C(c1cc2c([nH]1)CCC(F)(F)C2O)N1CCN2CCCC2C1 (stereo not drawn) [Compound I-068] the Ki was 520 nM. Cc1ccc(S(=O)(=O)OC2CCc3[nH]c(C(=O)N4CCN(C)CC4)cc3C2)cc1 (stereo not drawn) [Compound I-019] gave a Ki of 200 nM. Compound CN1CCN(C(=O)c2cc3c([nH]2)[C@H]2CC[C@@H]3C2)CC1 [Compound I-046] has a Ki of 290 nM. CN1CCN(C(=O)c2cc3c([nH]2)CCC(C)(C)C3)CC1 [Compound I-022] showed a Ki of 70 nM. For CC1CCc2cc(C(=O)N3CCN(C)CC3)[nH]c2C1 (stereo not drawn) [Compound I-017], the Ki was 570 nM. Work on CN1CCN(C(=O)c2cc3c([nH]2)C(O)CCC3)CC1 (stereo not drawn) [Compound I-036] yielded a Ki of 88 nM. O=C(c1cc2c([nH]1)CCCC2)N1CCNCC1 [Compound I-005] showed a Ki of 250 nM. For O=C(c1cc2c([nH]1)CCC(Cl)(Cl)C2O)N1CCNCC1 (stereo not drawn) [Compound I-073], the Ki was 980 nM. CCC1(O)CCCc2cc(C(=O)N3CCN(C)CC3)[nH]c21 (stereo not drawn) [Compound I-041] gave a Ki of 590 nM. With CN1CCN(C(=O)c2cc3c([nH]2)C(O)CC3)CC1 (stereo not drawn) [Compound I-012] the Ki was 680 nM. With CN1CCN(C(=O)c2cc3c([nH]2)CCC(Cl)(Cl)C3O)CC1 (stereo not drawn) [Compound I-066] the Ki was 350 nM. With COC1CCc2[nH]c(C(=O)N3CCN(C)CC3)cc2C1 (stereo not drawn) [Compound I-023] the Ki was 990 nM. In the case of CN1CCN(C(=O)c2cc3c([nH]2)CC=C(F)C3)CC1 [Compound I-065], the Ki is reported as 35 nM. CN1CCN(C(=O)c2cc3c([nH]2)C(C)(O)CCC3)CC1 (stereo not drawn) [Compound I-040] showed a Ki of 180 nM. O=C(c1cc2c([nH]1)CCC(F)(F)C2O)N1C[C@H]2CCCN[C@H]2C1 (stereo partly drawn) [Compound I-064] gave a Ki of 180 nM. Compound CN1CCN(C(=O)c2cc3c([nH]2)CCOC3)CC1 [Compound I-052] has a Ki of 380 nM. CN1CCN(C(=O)c2cc3c([nH]2)C(=O)CCC3)CC1 [Compound I-024] gave a Ki of 710 nM. CN1CCN(C(=O)c2cc3c([nH]2)CCC=C3)CC1 [Compound I-021] showed a Ki of 120 nM. CC(C)C(=O)n1c(C(=O)N2CCN(C)CC2)cc2c1CCCC2 [Compound I-061] gave a Ki of 210 nM. With CN1CCN(C(=O)c2cc3c([nH]2)CCC(C(F)(F)F)C3)CC1 (stereo not drawn) [Compound I-045] the Ki was 910 nM.

Test system: not listed separately
Assay: Metabolism stability test (rat)
Format: in vitro ADME
Settings: test compound concentration 0.5 μmol/L, 30 minutes, 37° C.
With CN1CCN(C(=O)c2cc3c([nH]2)C(O)CC3)CC1 (stereo not drawn) [Compound I-012] the remaining rate was 92%.

Same assay, conditions: test compound concentration 2 μmol/L, 30 minutes, 37° C.
O=C(c1cc2c([nH]1)CCC(Cl)(Cl)C2O)N1CCNCC1 (stereo not drawn) [Compound I-073] showed a remaining rate of 79%.

Test system: not listed separately
Assay: Metabolism stability test (human)
Format: in vitro ADME
Settings: test compound concentration 0.5 μmol/L, 30 minutes, 37° C.
Method: Using commercially available pooled human hepatic microsomes, prepared in accordance with Japanese journal of pharmacology, 33 (1), p. 41-56, February 1983, a test compound was reacted for a constant time, a remaining rate was calculated by comparing a reacted sample and an unreacted sample, thereby, a degree of metabolism in liver was assessed.
A reaction was performed (oxidative reaction) at 37° C. for 0 minute or 30 minutes in the presence of 1 mmol/L NADPH in 0.2 mL of a buffer (50 mmol/L tris-HCl pH 7.4, 150 mmol/L potassium chloride, 10 mmol/L magnesium chloride) containing 0.5 mg protein/mL of human liver microsomes. After the reaction, 50 μL of the reaction solution was added to 100 μL of a methanol/acetonitrile=1/1 (v/v), mixed and centrifuged at 3000 rpm for 15 minutes. The test compound in the supernatant was quantified by LC/MS/MS, and a remaining amount of the test compound after the reaction was calculated, letting a compound amount at 0 minute reaction time to be 100%. Hydrolysis reaction was performed in the absence of NADPH and glucuronidation reaction was in the presence of 5 mM UDP-glucuronic acid in place of NADPH, followed by similar operations.
In the case of CN1CCN(C(=O)c2cc3c([nH]2)C(O)CC3)CC1 (stereo not drawn) [Compound I-012], the remaining rate is reported as 94%.

Same assay, conditions: test compound concentration 2 μmol/L, 30 minutes, 37° C.
O=C(c1cc2c([nH]1)CCC(Cl)(Cl)C2O)N1CCNCC1 (stereo not drawn) [Compound I-073] gave a remaining rate of 99%.

Test system: not listed separately
Assay: Bioavailability (BA) test and total body clearance test
Format: in vivo
Settings: plasma; rat; oral 1 mg/kg dosage
Method: (1) Animal: mice or rats (2) Breeding conditions: mice and rats are allowed to freely take solid feed and sterilized tap water (3) Dose and grouping: orally or intravenously administered at a predetermined dose; grouping is as follows (Dose depends on the compound)
Oral administration: 1 to 30 mg/kg (n=2 to 3)
Intravenous administration: 0.5 to 10 mg/kg (n=2 to 3)
(4) Preparation of dosing solution: for oral administration, in a solution or a suspension state; for intravenous administration, in a solubilized state (5) Administration method: in oral administration, forcedly administer into ventriculus with oral probe; in intravenous administration, administer from caudal vein with a needle-equipped syringe (6) Evaluation items: blood is collected over time, and the plasma concentration of drug is measured by LC/MS/MS (7) Statistical analysis: regarding the transition of the plasma concentration, the area under the plasma concentration-time curve (AUC) and total body clearance (Clt) are calculated by non-linear least squares program WinNonlin (Registered trademark), and the bioavailability (BA) is calculated from the AUCs of the oral administration group and intravenous administration group
The following values show the rat BA of the compounds on oral 1 mg/kg dosage.
Work on O=C(c1cc2c([nH]1)CCC(Cl)(Cl)C2O)N1CCNCC1 (stereo not drawn) [Compound I-073] yielded a bioavailability of 59%.

Same assay, conditions: rat, plasma, intravenous; read-out: Clt (total body clearance)
O=C(c1cc2c([nH]1)CCC(Cl)(Cl)C2O)N1CCNCC1 (stereo not drawn) [Compound I-073] showed a clearance of 24 mL/min/kg.

Target: CYP3A4 (Homo sapiens, UniProt P08684)
Sequence (P08684 whole entry): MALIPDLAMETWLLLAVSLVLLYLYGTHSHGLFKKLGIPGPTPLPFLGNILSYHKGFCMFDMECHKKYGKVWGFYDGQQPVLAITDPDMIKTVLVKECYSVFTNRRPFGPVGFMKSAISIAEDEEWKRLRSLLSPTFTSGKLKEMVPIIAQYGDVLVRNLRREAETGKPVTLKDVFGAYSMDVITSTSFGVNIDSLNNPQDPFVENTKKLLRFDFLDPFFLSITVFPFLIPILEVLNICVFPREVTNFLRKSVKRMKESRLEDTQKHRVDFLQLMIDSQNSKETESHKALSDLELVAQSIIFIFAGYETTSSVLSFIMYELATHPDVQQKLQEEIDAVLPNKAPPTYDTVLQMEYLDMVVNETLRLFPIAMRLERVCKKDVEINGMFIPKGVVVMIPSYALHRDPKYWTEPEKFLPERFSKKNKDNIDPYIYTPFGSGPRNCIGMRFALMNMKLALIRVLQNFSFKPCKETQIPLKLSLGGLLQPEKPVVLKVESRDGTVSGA
Assay: CYP3A4 fluorescent MBI test
Format: in vitro ADME
Set-up: host or cells: Escherichia coli
Settings: prereaction 0 or 30 minutes; substrate 7-BFC; CYP3A4 expressed in Escherichia coli
Method: The CYP3A4 fluorescent MBI test is a test of investigating enhancement of CYP3A4 inhibition of a compound by a metabolism reaction, and the test was performed using, as CYP3A4 enzyme expressed in Escherichia coli and employing, as an index, a reaction in which 7-benzyloxytrifluoromethylchmarin (BFC) is debenzylated by the CYP3A4 enzyme to produce a metabolite, 7-hydroxytrifluoromethylchmarin (HFC) emitting fluorescent light.
The reaction conditions were as follows: substrate, 5.6 μmol/L 7-BFC; prereaction time, 0 or 30 minutes; reaction time, 15 minutes; reaction temperature, 25° C. […]
An enzyme in a K-Pi buffer (pH 7.4) and a test drug solution as a pre-reaction solution were added to a 96-well plate at the composition of the pre-reaction, a part of it was transferred to another 96-well plate so that it was 1/10 diluted by a substrate in a K-Pi buffer, NADPH as a co-factor was added to initiate a reaction as an index (without preincubation) and, after a predetermined time of a reaction, acetonitrile/0.5 mol/L Tris(trishydroxyaminomethane)=4/1 was added to stop the reaction. […] For the plate on which each index reaction had been performed, a fluorescent value of 7-HFC which is a metabolite was measured with a fluorescent plate reader. […]
For CN1CCN(C(=O)c2cc3c([nH]2)CCC3O)CC1 (stereo not drawn) [Compound I-010], the “CYP3A4 MBI: difference between IC50 values” was “(−) (when the difference is 3 μM or less, this was defined as (−))”.
